Experimental data taken from PMC4658637 (2015).

What was measured:
[1] = test system: SPR-c-kit2 (DNA, G4) GGGCGGGCGCGAGGGAGGGG; experiment: SPR; conditions: 100 mM K+ (KCl); 50 mM Tris-HCl, pH 7.2, 25 °C; Langmuir kinetic fit
[2] = test system: bcl-2 (DNA, G4) GGGCGGGCGCGGGAGGAAGGGGGCGGG; experiment: fluorescence titration; conditions: 100 mM K+ (KCl); 10 mM Tris-HCl, pH 7.2; strong light-up of 15 at 525 nm
[3] = test system: c-kit2-Ap16 (DNA, G4, 2-aminopurine at 16) GGGCGGGCGCGAGGGAGGGG; experiment: 2-aminopurine fluorescence titration; conditions: 100 mM K+ (KCl); 10 mM Tris-HCl, pH 7.2; 1 μM DNA, 0-10 μM compound
[4] = test system: HT-L2H (DNA, G4) TTGGGTTAGGGTTAGGGTTAGGGA; experiment: fluorescence titration; conditions: 100 mM K+ (KCl); 10 mM Tris-HCl, pH 7.2; much weaker light-up, up to 5 μM DNA
[5] = test system: htg22 (DNA, G4) AGGGTTAGGGTTAGGGTTAGGG; experiment: fluorescence titration; conditions: 100 mM K+ (KCl); 10 mM Tris-HCl, pH 7.2; much weaker light-up, up to 5 μM DNA
[6] = test system: HRAS-Ap16 (DNA, G4, 2-aminopurine at 16) TCGGGTTGCGGGCGCAGGGCACGGGCG; experiment: 2-aminopurine fluorescence titration; conditions: 100 mM K+ (KCl); 10 mM Tris-HCl, pH 7.2; 1 μM DNA, 0-10 μM compound
[7] = test system: c-kit2-Ap4 (DNA, G4, 2-aminopurine at 4 (replaces C)) GGGCGGGCGCGAGGGAGGGG; experiment: 2-aminopurine fluorescence titration; conditions: 100 mM K+ (KCl); 10 mM Tris-HCl, pH 7.2; 1 μM DNA, 0-10 μM compound
[8] = test system: c-kit3 (DNA, G4) GGCGAGGAGGGGCGTGGCCGGC; experiment: fluorescence titration; conditions: 100 mM K+ (KCl); 10 mM Tris-HCl, pH 7.2; much weaker light-up, up to 5 μM DNA
[9] = test system: TBA (DNA, G4) GGTTGGTGTGGTTGG; experiment: fluorescence titration; conditions: 100 mM K+ (KCl); 10 mM Tris-HCl, pH 7.2; much weaker light-up, up to 5 μM DNA
[10] = test system: KRAS (DNA, G4) AGGGCGGTGTGGGAAGAGGGAAGAGGGGGAGG; experiment: fluorescence titration; conditions: 100 mM K+ (KCl); 10 mM Tris-HCl, pH 7.2; strong light-up of 15 at 525 nm
[11] = test system: HRAS-Ap21 (DNA, G4, 2-aminopurine at 21) TCGGGTTGCGGGCGCAGGGCACGGGCG; experiment: 2-aminopurine fluorescence titration; conditions: 100 mM K+ (KCl); 10 mM Tris-HCl, pH 7.2; 1 μM DNA, 0-10 μM compound
[12] = test system: HRAS (DNA, G4) TCGGGTTGCGGGCGCAGGGCACGGGCG; experiment: fluorescence titration; conditions: 100 mM K+ (KCl); 10 mM Tris-HCl, pH 7.2; much weaker light-up, up to 5 μM DNA
[13] = test system: c-kit2 (DNA, G4) GGGCGGGCGCGAGGGAGGGG; experiment: fluorescence titration; conditions: 100 mM K+ (KCl); 10 mM Tris-HCl, pH 7.2; strong light-up of 15 at 525 nm
[14] = test system: c-kit2-Ap12 (DNA, G4, 2-aminopurine at 12) GGGCGGGCGCGAGGGAGGGG; experiment: 2-aminopurine fluorescence titration; conditions: 100 mM K+ (KCl); 10 mM Tris-HCl, pH 7.2; 1 μM DNA, 0-10 μM compound
[15] = test system: Pu22 (DNA, G4) TGAGGGTGGGTAGGGTGGGTAA; experiment: fluorescence titration; conditions: 100 mM K+ (KCl); 10 mM Tris-HCl, pH 7.2; strong light-up of 15 at 525 nm
[16] = test system: HRAS-Ap7 (DNA, G4, 2-aminopurine at 7 (replaces T)) TCGGGTTGCGGGCGCAGGGCACGGGCG; experiment: 2-aminopurine fluorescence titration; conditions: 100 mM K+ (KCl); 10 mM Tris-HCl, pH 7.2; 1 μM DNA, 0-10 μM compound

SMILES: C#CCOc1ccc(-c2[nH]c(-c3cc4ccc(N(CC)CC)cc4oc3=O)nc2-c2ccc(OCCCN(CC)CC)cc2)cc1
- KD [1]: 13.9 µM

SMILES: CCN(CC)CCCOc1ccc(-c2nc(-c3cc4ccc(N(CC)CC)cc4oc3=O)[nH]c2-c2ccc(OCc3cn(CCC(=O)O)nn3)cc2)cc1
- binding [2]: yes
- KD [1]: 6.1 µM
- binding [3]: yes
- binding [4]: weak
- binding [5]: weak
- binding [6]: weak
- binding [7]: yes
- binding [8]: weak
- binding [9]: weak
- binding [10]: yes
- binding [11]: weak
- binding [12]: weak
- binding [13]: yes
- binding [14]: yes
- binding [15]: yes
- binding [16]: weak

SMILES: CCN(CC)CCCOc1ccc(-c2nc(-c3cc4ccc(N(CC)CC)cc4oc3=O)[nH]c2-c2ccc(OCc3cn(CCCN(C)C)nn3)cc2)cc1
- KD [1]: 4.3 µM

SMILES: CCN(CC)CCCOc1ccc(-c2nc(-c3cc4ccc(N(CC)CC)cc4oc3=O)[nH]c2-c2ccc(OCc3cn(CCCN4CCN(C)CC4)nn3)cc2)cc1
- KD [1]: 2.0 µM
- binding [3]: yes
- binding [7]: yes
- binding [11]: yes
- binding [16]: yes

SMILES: CCN(CC)CCCOc1ccc(-c2nc(-c3cc4ccc(N(CC)CC)cc4oc3=O)[nH]c2-c2ccc(OCc3cn(CCCO)nn3)cc2)cc1
- KD [1]: 3.1 µM

SMILES: CCN(CC)CCCOc1ccc(-c2nc(-c3cc4ccc(N(CC)CC)cc4oc3=O)[nH]c2-c2ccc(OCc3cn(CCN(C)C)nn3)cc2)cc1
- KD [1]: 2.7 µM

SMILES: CCN(CC)CCCOc1ccc(-c2nc(-c3cc4ccc(N(CC)CC)cc4oc3=O)[nH]c2-c2ccc(OCc3cn(CCN4CCCCC4)nn3)cc2)cc1
- KD [1]: 1.8 µM

SMILES: CCN(CC)CCCOc1ccc(-c2nc(-c3cc4ccc(N(CC)CC)cc4oc3=O)[nH]c2-c2ccc(OCc3cn(CCN4CCOCC4)nn3)cc2)cc1
- KD [1]: 4.8 µM
